Tests used:
[1] = xn = mol fraction of the nth substance listed; conditions: for viscosity / mass density: 101 kPa, Liquid; for viscosity: Capillary tube (Ostwald / Ubbelohde) method; for mass density: Vibrating tube method
[2] = refractive index (Na D-line) (dimensionless); xn = mol fraction of the nth substance listed; conditions: 101 kPa, Liquid

C1C[C@@H]2[C@H]3CC[C@H](C3)[C@@H]2C1 [exo-tetrahydrodicyclopentadiene] + CCCCCCCCCCCCC
Conditions | mass density, [1] [kg/m3] | refractive index, [2] | surface tension liquid-gas, [1] [mN/m] | viscosity, [1] [mPa·s]
293.15 K, x2 = 0 | 935.3 | 1.4877 | 31.86 | 3.077
293.15 K, x2 = 0.0757 | 913.9 | 1.4795 | 30.4 | 2.88
293.15 K, x2 = 0.1546 | 893.5 | 1.4726 | 29.63 | 2.703
293.15 K, x2 = 0.2392 | 873.7 | 1.4662 | 28.55 | 2.552
293.15 K, x2 = 0.3284 | 854.6 | 1.4586 | 28.03 | 2.419
293.15 K, x2 = 0.4236 | 836.3 | 1.4528 | 27.19 | 2.302
293.15 K, x2 = 0.5258 | 818.7 | 1.4468 | 26.68 | 2.198
293.15 K, x2 = 0.632 | 802.3 | 1.4407 | 25.95 | 2.108
293.15 K, x2 = 0.7477 | 786.3 | 1.4349 | 25.54 | 2.028
293.15 K, x2 = 0.8665 | 771.5 | 1.4306 | 25.19 | 1.963
298.15 K, x2 = 0 | 931.4 | – | – | 2.784
298.15 K, x2 = 0.0757 | 910 | – | – | 2.609
298.15 K, x2 = 0.1546 | 889.7 | – | – | 2.448
298.15 K, x2 = 0.2392 | 869.9 | – | – | 2.311
298.15 K, x2 = 0.3284 | 850.9 | – | – | 2.189
298.15 K, x2 = 0.4236 | 832.6 | – | – | 2.082
298.15 K, x2 = 0.5258 | 815 | – | – | 1.992
298.15 K, x2 = 0.632 | 798.7 | – | – | 1.913
298.15 K, x2 = 0.7477 | 782.7 | – | – | 1.842
298.15 K, x2 = 0.8665 | 767.9 | – | – | 1.789
303.15 K, x2 = 0 | 927.5 | 1.4832 | 31.09 | 2.525
303.15 K, x2 = 0.0757 | 906.1 | 1.4743 | 29.94 | 2.37
303.15 K, x2 = 0.1546 | 885.9 | 1.4683 | 28.98 | 2.233
303.15 K, x2 = 0.2392 | 866.1 | 1.4614 | 28.38 | 2.112
303.15 K, x2 = 0.3284 | 847.1 | 1.4541 | 27.21 | 2
303.15 K, x2 = 0.4236 | 828.9 | 1.4483 | 26.74 | 1.904
303.15 K, x2 = 0.5258 | 811.3 | 1.442 | 25.72 | 1.822
303.15 K, x2 = 0.632 | 795 | 1.4357 | 25.38 | 1.748
303.15 K, x2 = 0.7477 | 779 | 1.4305 | 24.83 | 1.689
303.15 K, x2 = 0.8665 | 764.3 | 1.4258 | 24.5 | 1.631
313.15 K, x2 = 0 | 919.6 | – | – | 2.112
313.15 K, x2 = 0.0757 | 898.4 | – | – | 1.975
313.15 K, x2 = 0.1546 | 878.2 | – | – | 1.86
313.15 K, x2 = 0.2392 | 858.4 | – | – | 1.759
313.15 K, x2 = 0.3284 | 839.5 | – | – | 1.669
313.15 K, x2 = 0.4236 | 821.4 | – | – | 1.587
313.15 K, x2 = 0.5258 | 803.9 | – | – | 1.521
313.15 K, x2 = 0.632 | 787.7 | – | – | 1.466
313.15 K, x2 = 0.7477 | 771.8 | – | – | 1.416
313.15 K, x2 = 0.8665 | 757 | – | – | 1.369

From the NIST ThermoML archive (doi:10.1021/je200757a)
